Measurements: publication PMC5797126, “Identification of influenza polymerase inhibitors targeting C-terminal domain of PA through surface plasmon resonance screening” (Scientific Reports, 2018)

Experiments:
in vitro [1] = conditions: human
influenza RNP = influenza RNP (Influenza A virus, UniProt P15659); assay: cell-based
[2] = test system: influenza virus (A/WSN/33); assay: microbe, parasite or virus in culture; format: cell-based; conditions: for IC50: unidentified influenza virus, WSN, MDCK, 24 h, read-out: Viral Yield Reduction Assay IC50
in vitro [3] = conditions: dog
[4] = target: PAC (C-terminal domain of PA, residues 256–716 of A/WSN/33) (Influenza A virus, UniProt P15659); assay: biochemical; format: binding, influenza A/WSN/33

| SMILES | CC50 at 24 h (in vitro [1]) [µM] | IC50 (influenza RNP) [µM] | IC50 [2] [µM] | CC50 at 24 h (in vitro [3]) [µM] | Kd [4] [µM] | inhibition of influenza viral yield (in words) [2] | cytotoxicity in MDCK cells (in words) (MDCK cells) |
| --- | --- | --- | --- | --- | --- | --- | --- |
| O=c1c2ccccc2nc(NCCN2CCNCC2)n1-c1ccccc1 [Compound S1a, 2-[(2-(Piperazino)ethyl)amino]-3-phenylquinazolin-4(3H)-one] | > 100 | – | – | – | – | – | – |
| Cc1ccccc1-n1c(NCCCN2CCOCC2)nc2ccccc2c1=O [Compound S1b, 2-[(3-Morpholinopropyl)amino]-3-(2-methylphenyl)quinazolin-4(3H)-one] | > 100 | 87.8 ± 21.8 | > 100 | > 100 | – | – | – |
| Cc1ccc(-n2c(NCCCN3CCOCC3)nc3ccccc3c2=O)cc1 [Compound S1c, 2-[(3-Morpholinopropyl)amino]-3-(4-methylphenyl)quinazolin-4(3H)-one] | > 100 | – | – | – | – | – | – |
| O=c1c2ccccc2nc(NCCCN2CCOCC2)n1-c1ccc(F)cc1 [Compound S1d, 3-(4-Fluorophenyl)-2-((3-morpholinopropyl)amino)quinazolin-4(3H)-one] | > 100 | – | – | – | – | – | – |
| O=c1c2c(O)c(Cc3ccccc3)c(=O)n(CCO)c2n(-c2ccccc2)c(=O)n1-c1ccccc1 [Compound S2a, 6-benzyl-5-hydroxy-8-(2-hydroxyethyl)-1,3-diphenylpyrido[2,3-d]pyrimidine-2,4,7(1H,3H,8H)-trione] | 84.6 ± 17.3 | 9.69 ± 3 | 7.74 ± 6.02 | > 100 | 1.77 ± 0.78 | dose-dependent inhibition of influenza virus | slight cytotoxicity at their highest tested concentration |
| CC(c1ccccc1)c1c(O)c2c(=O)n(-c3ccccc3)c(=O)n(-c3ccccc3)c2[nH]c1=O (centres unmarked) [Compound S2b, 5-hydroxy-1,3-diphenyl-6-(1-phenylethyl)pyrido[2,3-d]pyrimidine-2,4,7(1H,3H,8H)-trione] | > 100 | 14.2 ± 3.6 | 4.96 ± 3.84 | 42.8 ± 9 | 16.2 ± 8.3 | dose-dependent inhibition of influenza virus | – |
| CC(c1ccccc1)c1c(O)c2c(=O)n(-c3ccccc3)c(=O)n(-c3ccccc3)c2n(C)c1=O (centres unmarked) [Compound S2c, 5-hydroxy-8-methyl-1,3-diphenyl-6-(1-phenylethyl)pyrido[2,3-d]pyrimidine-2,4,7(1H,3H,8H)-trione] | 97.1 ± 16.1 | – | – | – | – | – | – |
| COc1c(C(C)c2ccccc2)c(=O)n(C)c2c1c(=O)n(-c1ccccc1)c(=O)n2-c1ccccc1 (centres unmarked) [Compound S2d, 5-methoxy-8-methyl-1,3-diphenyl-6-(1-phenylethyl)pyrido[2,3-d]pyrimidine-2,4,7(1H,3H,8H)-trione] | 66.6 ± 6.09 | > 12.5 | 3.18 ± 2.44 | 35.6 ± 9.24 | > 25 | dose-dependent inhibition of influenza virus | – |
| CC(=O)n1c(=O)c(C(C)c2ccccc2)c(O)c2c(=O)n(-c3ccccc3)c(=O)n(-c3ccccc3)c21 (centres unmarked) [Compound S2e, 8-acetyl-5-hydroxy-1,3-diphenyl-6-(1-phenylethyl)pyrido[2,3-d]pyrimidine-2,4,7(1H,3H,8H)-trione] | > 100 | 6.69 ± 7.49 | 5.11 ± 4.22 | 53.1 ± 9.25 | 50.9 ± 25.5 | dose-dependent inhibition of influenza virus | – |
| Cn1c(=O)c(Nc2ccccc2)c(O)c2c(=O)n(-c3ccccc3)c(=O)n(-c3ccccc3)c21 [Compound S2f, 5-hydroxy-8-methyl-1,3-diphenyl-6-(phenylamino)pyrido[2,3-d]pyrimidine-2,4,7(1H,3H,8H)-trione] | > 100 | 62.4 ± 22.4 | > 100 | > 100 | – | inability to attenuate influenza virus | – |
